The target in assay [1] is T1, MYC:MAX heterodimer (MYCbHLHZip over immobilized MAXbHLHZip) (Homo sapiens, UniProt P01106).
T1 construct: MYC:MAX heterodimer formation assay based on recombinant proteins
Briefly: Assay 1B MYC:MAX SPR heterodimer formation assay. In kind it is binding. The conditions noted are these: 100 nM MYCbHLHZip pre-mixed with compound, 25° C. The method, then:
FIG. 1: A) Microscale thermophoresis (MST) of fluorescently labeled MAX in a MYC:MAX heterodimer formation assay based on recombinant proteins. MST of labeled MAXbHLHZip after titration of Example 1 pre-incubated with 1 μM MYCbHLHZip, or with 1 μM MAXbHLHZip. Fluorescence intensity of labeled MAXbHLHZip relative DMSO was plotted against Example 1 concentration. B) Surface plasmon resonance (SPR) of MYC:MAX heterodimer formation assay. MAXbHLHZip was immobilized by an amino coupling procedure to a CM5 sensor chip. MYCbHLHZip pre-incubated with or without compound (as indicated) was injected over MAX for 180 seconds, allowed to dissociate for 240 seconds and regenerated. Reference surface (without MAXbHLHZip) subtracted sensorgrams are shown from one representative experiment. C) MYC binding response units (RU) plotted against Example 1 concentration from which an IC50 of Example 1 inhibition of MYC:MAX heterodimer formation is determined, summary of four experiments.
Assay 1B. Surface Plasmon Resonance (SPR)
The SPR method is a highly sensitive assay to determine the affinity between protein and ligand and to measure the kinetics of the interaction (see Handbook of Surface Plasmon Resonance 2nd edition, Richard B M Schasfoort (Editor), RSC 2017, ca. 500 p., hardcover, ISBN 978-1-78262-730-2). […]

The target in assay [2] is T2, endogenous MYC:MAX in MDA-MB231 cells (Homo sapiens, UniProt P01106).
T2 construct: endogenous in cells; host or cells: MDA-MB231
T2 sequence (P01106 whole entry): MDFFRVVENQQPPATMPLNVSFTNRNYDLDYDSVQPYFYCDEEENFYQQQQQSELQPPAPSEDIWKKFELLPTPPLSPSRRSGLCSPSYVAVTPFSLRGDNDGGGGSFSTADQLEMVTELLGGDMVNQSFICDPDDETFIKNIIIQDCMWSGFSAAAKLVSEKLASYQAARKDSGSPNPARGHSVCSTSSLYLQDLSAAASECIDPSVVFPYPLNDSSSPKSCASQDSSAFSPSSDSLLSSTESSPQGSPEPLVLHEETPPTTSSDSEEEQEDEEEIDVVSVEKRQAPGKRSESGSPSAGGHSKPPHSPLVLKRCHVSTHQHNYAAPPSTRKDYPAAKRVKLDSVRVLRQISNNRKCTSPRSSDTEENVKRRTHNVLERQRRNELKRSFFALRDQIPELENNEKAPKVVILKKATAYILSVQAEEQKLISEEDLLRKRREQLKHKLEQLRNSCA
Briefly: Assay 3B CoIP of endogenous MAX with MYC. Type of assay: cell-based. As to the method:
(§1) FIG. 4: A) Endogenous MYC:MAX (upper panel) and FRA1:JUN (lower panel) interactions as visualized as fluorescent red dots by isPLA. Nuclei were counterstained with DAPI (blue). Cells were treated with 10 μM of indicated compounds for 16 hours and subjected to isPLA using pairs of MYC and MAX and of FRA1 and JUN antibodies, respectively. As negative control, primary antibody pairs but only one oligo-conjugated secondary antibody was used. B) Quantification of MYC:MAX and C) FRA1:JUN isPLA, representing an average number of nuclear dots per cell from three microscopic fields normalized to corresponding values for DMSO-treated cells. […] 1st-4th lanes from top; coimmunoprecipitated MAX, immunoprecipitated MYC, total levels of MAX and ACTIN, respectively, as determined by western blot analysis. E) MYC:MAX GLuc assay in cells. […] 24 hours later cells were treated with […] of Example 1, Example 2 and control compound for 16 hours and thereafter analyzed in a dual luciferase assay. The ratio of Gaussia/Firefly luciferase luminescence were calculated and normalized to DMSO-treated cells.
Coimmunoprecipitation of endogenous MYC:MAX proteins were essentially carried out as in Bahram, F. et al. Interferon-gamma-induced p27KIP1 binds to and targets MYC for proteasome-mediated degradation. Oncotarget 7, 2837-2854, doi:10.18632/oncotarget.6693 (2016). […]

Assay [3] addresses T3, MYC:MAX (MYC-GLuc-C + MAX-GLuc-N) in HEK293 cells (Homo sapiens, UniProt P01106).
T3 construct: expressed in transfected cells; host or cells: HEK293 (also COS-7)
Briefly: Assay 3C GLuc complementation assay. Type of assay: cell-based. The method, then: as §1
The protein fragment complementation assay using the Gaussia luciferase (GLuc) has been described (Remy, I. & Michnick, S. W. A highly sensitive protein-protein interaction assay based on Gaussia luciferase. Nat Methods 3, 977-979, doi:10.1038/nmeth979 (2006)). […] 24 hours later cells were treated with compound or DMSO. After another 17 hours the cells were harvested and lyzed in passive lysis buffer (Promega) supplemented with complete protease inhibitor (Roche). After 60 min incubation at room temperature 20 μM D-luciferin was added (substrate of Firefly luciferase) and luminescence was measured in a Lumat LB9501 (Berthold) or OmegaFluostar (BMG Labtech) luminometer. Directly after, the Gaussia luciferase substrate Coelenterazine (Promega) was added to a final concentration of 20 μM and the luciferase activity was measured. The ratio between Gaussia and Firefly luciferase values were calculated and normalized to DMSO-treated control cells.

Assay [4] has as its system MYC null (H015.19) Rat1 fibroblast cells. Briefly: Assay 5B Tgr cell growth (WST-1), MYC null. In kind it is cell-based, rat. Particulars: 48 hours. The method, then:
FIG. 6: A-B) Neuroblastoma cell lines with (SK-N-DZ, Kelly and IMR-32) or without (SK-N-F1, SK-N-RA and SK-N-AS) MYCN-amplification were exposed to different concentrations of Example 1, Example 2 and control compound, respectively, for 48 hours. Cell growth and viability was estimated by measuring metabolic activity. C) Growth of TGR-1 (wt), HO15.19 (MYC knockout) and HOmyc3 (MYC reconstituted HO15.19) Rat1 fibroblasts, as measured by the WST-1 assay after treatment with Example 1. Data are shown as mean±standard deviation of 3-5 biological experiments, each with 3 technical repeats.
Assay 5B: Tgr Cell Growth
Tgr cells were treated at 37° C. and 5% CO2 at 48 hours with Example and Example 2. H015.19 is a MYC null rat cell line derived from Tgr1 (parental cells), while H0Myc3 cells were generated from the MYC null cells by reconstitution of a MYC gene(Mateyak, M. K., Obaya, A. J., Adachi, S. & Sedivy, J. M. Phenotypes of c-Myc-deficient rat fibroblasts isolated by targeted homologous recombination. Cell Growth Differ 8, 1039-1048 (1997)).

T3 sequence (P01106 whole entry): as above
T1 sequence (P01106 368-449 limits assumed, one chain of several): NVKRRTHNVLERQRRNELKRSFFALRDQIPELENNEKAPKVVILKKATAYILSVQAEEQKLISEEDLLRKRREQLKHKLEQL

Usually IC50 stands for the midpoint of a concentration-inhibition curve. By inhibition is commonly meant the percentage by which the read-out fell short of the control. In general, GI50 refers to the concentration at which growth is held to half of that of the control. With `CCOc1ccc2nc3cc(/N=N/c4ccc(N)nc4N)ccc3c(N)c2c1` [Example 1, 3-((9-amino-7-ethoxyacridin-3-yl)diazenyl)pyridine-2,6-diamine sulphate hydrate], the IC50 in assay [1] stood at 3.8 µM; in assay [3] (exogenous MYC:MAX), 10 µM. Besides, the “reduction of MYC:MAX protein interaction vs DMSO treated cells (CoIP)” value in assay [2] (5 μM, 3.5 hours) was “More than Half”. Also, the inhibition at 5 µM in assay [2] (MDA-MB-231, read-out: CoIP inhibition at 10 μM) was more than 70%. Further, the inhibition at 10 µM in assay [3] (HEK293) came out at 50%. The “growth of the MYC null cells” value in assay [4] is on record as “did not significantly affect”. The GI50 in assay [4] (Rattus norvegicus, Fibroblast, first run) was more than 10 µM.

Values taken from patent publication US11896589B2, “Diazinyl amino acridines and medical uses thereof” (MyCural Therapeutics AB, priority 2018, dated 2024).
